According to publication PMC11844072, “Novel 5,6-dichlorobenzimidazole derivatives as dual BRAFWT and BRAFV600E inhibitors: design, synthesis, anti-cancer activity and molecular dynamics simulations” (BMC Chemistry, 2025):

Columns and labels:
Test in all cases: NCI 60 single concentration growth inhibition
Format in all cases: cell-based, human
[1] = tested on: 786-0; conditions: Homo sapiens, 786-0, Renal cancer, read-out: GI%
Protocol: (§1) The synthesized dichlorobenzimidazoles 10a–p were assayed for their influence on divers cancer cell lines according to the method presented in the Additional file A.
(§2) 5. Screening of cytotoxic activity against a panel of sixty human tumor cell lines
(§3) The selected compounds by NCI were evaluated for their anticancer activity in a two-stage process. First, these compounds were screened against the full NCI 60 cell lines panel at a single high dose of 10 µM. Then, the output from the single dose screen is reported as a mean graph. […]
(§4) at five different minimal concentrations.
(§5) Assay protocol. The human tumor cell lines of the cancer screening panel are grown in RPMI 1640 medium containing 5% fetal bovine serum and 2 mM L-glutamine. For a typical screening experiment, cells are inoculated into 96 well microtiter plates in 100 µL at plating densities ranging from 5000 to 40,000 cells/well depending on the doubling time of individual cell lines. After cell inoculation, the microtiter plates are incubated at 37 °C, 5% CO 2, 95% air and 100% relative humidity for 24 h prior to addition of the experimental drugs.
(§6) After 24 h, two plates of each cell line are fixed in situ with TCA, to represent a measurement of the cell population for each cell line at the time of drug addition (Tz). The experimental drugs are solubilized in dimethyl sulfoxide at 400-fold the desired final maximum test concentration and stored frozen prior to use. At the time of drug addition, an aliquot of frozen concentrate is thawed and diluted to twice the desired final maximum test concentration with complete medium containing 50 µg/mL gentamicin. Additional four, 10-fold or ½ log serial dilutions are made to provide a total of five drug concentrations plus control.
(§7) Aliquots of […] of these different drug dilutions are added to the appropriate microtiter wells already containing […] of medium, resulting in the required final drug concentrations.
(§8) Following drug addition, the plates are incubated for an additional 48 h at 37 °C, 5% CO 2, 95% air, and 100% relative humidity. For adherent cells, the assay is terminated by the addition of cold TCA.
(§9) Cells are fixed in situ by the gentle addition of 50 µL of cold 50% (w/v) TCA (final concentration, 10% TCA) and incubated for 60 min at 4 °C. The supernatant is discarded, and the plates are washed five times with tap water and air dried. Sulforhodamine B (SRB) solution ([…]) at 0.4% (w/v) in 1% acetic acid is added to each well, and plates are incubated for 10 min at room temperature. After staining, unbound dye is removed by washing five times with 1% acetic acid and the plates are air dried. Bound stain is subsequently solubilized with 10 mM trizma base, and the absorbance is read on an automated plate reader at a wavelength of 515 nm. For suspension cells, the methodology is […]
(§10) the same except that the assay is terminated by fixing settled cells at the bottom of the wells by gently adding 50 µl of 80% TCA (final concentration, 16% TCA). Using the seven absorbance measurements [time zero, (Tz), control growth, (C), and test growth in the presence of drug at the five concentration levels (Ti)], the percentage growth is calculated at each of the drug concentrations […]
(§11) Percentage growth inhibition is calculated as: [(Ti Tz)/(C–Tz)] x 100 for concentrations for which Ti>/=Tz and [(Ti-Tz)/Tz] x 100 for concentrations for which Ti < Tz.
(§12) Three dose response parameters are calculated for each experimental agent. Growth […]
(§13) concentration resulting in a 50% reduction in the net protein increase (as measured by SRB staining) in control cells during the drug incubation. The drug concentration resulting in total growth inhibition (TGI) is calculated from Ti = Tz. […]
(§14) reduction in the measured protein at the end of the drug treatment as compared to that at the beginning) indicating a net loss of cells following treatment is calculated from [(Ti–Tz)/Tz] x 100 =
(§15) _50. Values are calculated for each of these three parameters if the level of activity is reached; […]

[2] = tested on: ACHN; conditions: Homo sapiens, Renal cancer, read-out: GI%
Protocol: as §1, §2, §3, §4, §5, §6, §7, §8, §9, §10, §11, §12, §13, §14, §15

[3] = tested on: CAKI-1; conditions: Homo sapiens, CAKI-1, Renal cancer, read-out: GI%
Protocol: as §1, §2, §3, §4, §5, §6, §7, §8, §9, §10, §11, §12, §13, §14, §15

[4] = tested on: CCRF-CEM; conditions: Homo sapiens, Leukemia, read-out: GI%
Protocol: as §1, §2, §3, §4, §5, §6, §7, §8, §9, §10, §11, §12, §13, §14, §15

[5] = tested on: EKVX; conditions: Homo sapiens, Non-small cell lung cancer, read-out: GI%
Protocol: as §1, §2, §3, §4, §5, §6, §7, §8, §9, §10, §11, §12, §13, §14, §15

[6] = tested on: HCT-116; conditions: Homo sapiens, HCT-116, Colon cancer, read-out: GI%
Protocol: as §1, §2, §3, §4, §5, §6, §7, §8, §9, §10, §11, §12, §13, §14, §15

[7] = tested on: HOP-62; conditions: Homo sapiens, HOP-62, Non-small cell lung cancer, read-out: GI%
Protocol: as §1, §2, §3, §4, §5, §6, §7, §8, §9, §10, §11, §12, §13, §14, §15

[8] = tested on: HS 578T; conditions: Homo sapiens, Breast cancer, read-out: GI%
Protocol: as §1, §2, §3, §4, §5, §6, §7, §8, §9, §10, §11, §12, §13, §14, §15

[9] = tested on: KM12; conditions: Homo sapiens, KM12, Colon cancer, read-out: GI%
Protocol: as §1, §2, §3, §4, §5, §6, §7, §8, §9, §10, §11, §12, §13, §14, §15

[10] = tested on: M14; conditions: Homo sapiens, M14, Melanoma, read-out: GI%
Protocol: as §1, §2, §3, §4, §5, §6, §7, §8, §9, §10, §11, §12, §13, §14, §15

[11] = tested on: MDA-MB-435; conditions: Homo sapiens, MDA-MB-435, Melanoma, read-out: GI%
Protocol: as §1, §2, §3, §4, §5, §6, §7, §8, §9, §10, §11, §12, §13, §14, §15

[12] = tested on: MDA-MB-468; conditions: Homo sapiens, MDA-MB-468, Breast cancer, read-out: GI%
Protocol: as §1, §2, §3, §4, §5, §6, §7, §8, §9, §10, §11, §12, §13, §14, §15

[13] = tested on: MOLT-4; conditions: Homo sapiens, MOLT-4, Leukemia, read-out: GI%
Protocol: as §1, §2, §3, §4, §5, §6, §7, §8, §9, §10, §11, §12, §13, §14, §15

[14] = tested on: NCI-H23; conditions: Homo sapiens, NCI-H23, Non-small cell lung cancer, read-out: GI%
Protocol: as §1, §2, §3, §4, §5, §6, §7, §8, §9, §10, §11, §12, §13, §14, §15

[15] = tested on: OVCAR-5; conditions: Homo sapiens, OVCAR-5, Ovarian cancer, read-out: GI%
Protocol: as §1, §2, §3, §4, §5, §6, §7, §8, §9, §10, §11, §12, §13, §14, §15

[16] = tested on: RPMI-8226; conditions: Homo sapiens, RPMI-8226, Leukemia, read-out: GI%
Protocol: as §1, §2, §3, §4, §5, §6, §7, §8, §9, §10, §11, §12, §13, §14, §15

[17] = tested on: RXF 393; conditions: Homo sapiens, RXF 393, Renal cancer, read-out: GI%
Protocol: as §1, §2, §3, §4, §5, §6, §7, §8, §9, §10, §11, §12, §13, §14, §15

[18] = tested on: SK-OV-3; conditions: Homo sapiens, SK-OV-3, Ovarian cancer, read-out: GI%
Protocol: as §1, §2, §3, §4, §5, §6, §7, §8, §9, §10, §11, §12, §13, §14, §15

[19] = tested on: SR; conditions: Homo sapiens, Leukemia, read-out: GI%
Protocol: as §1, §2, §3, §4, §5, §6, §7, §8, §9, §10, §11, §12, §13, §14, §15

[20] = tested on: T-47D; conditions: Homo sapiens, T47D, Breast cancer, read-out: GI%
Protocol: as §1, §2, §3, §4, §5, §6, §7, §8, §9, §10, §11, §12, §13, §14, §15

[21] = tested on: UACC-257; conditions: Homo sapiens, UACC-257, Melanoma, read-out: GI%
Protocol: as §1, §2, §3, §4, §5, §6, §7, §8, §9, §10, §11, §12, §13, §14, §15

[22] = tested on: UACC-62; conditions: Homo sapiens, UACC-62, Melanoma, read-out: GI%
Protocol: as §1, §2, §3, §4, §5, §6, §7, §8, §9, §10, §11, §12, §13, §14, §15

SMILES	inhibition at 10 µM [1] [%]	inhibition at 10 µM [2] [%]	inhibition at 10 µM [3] [%]	inhibition at 10 µM [4] [%]	inhibition at 10 µM [5] [%]	inhibition at 10 µM [6] [%]	inhibition at 10 µM [7] [%]	inhibition at 10 µM [8] [%]	inhibition at 10 µM [9] [%]	inhibition at 10 µM [10] [%]	inhibition at 10 µM [11] [%]	inhibition at 10 µM [12] [%]	inhibition at 10 µM [13] [%]	inhibition at 10 µM [14] [%]	inhibition at 10 µM [15] [%]	inhibition at 10 µM [16] [%]	inhibition at 10 µM [17] [%]	inhibition at 10 µM [18] [%]	inhibition at 10 µM [19] [%]	inhibition at 10 µM [20] [%]	further results
COC(=O)COc1ccc(C=NNC(=O)Cn2c(-c3ccc(OC)cc3)nc3cc(Cl)c(Cl)cc32)cc1OC [Compound 10p, Methyl-2-(4-((2-(2-(5,6-dichloro-2-(4-methoxyphenyl)-1H-benzo[d]imidazol-1-yl)acetyl)hydrazono)methyl)-2-methoxyphenoxy)acetate]	162	95.2	16.5	21.1	18.9	25.1	< 5	118	< 5	< 5	31.9	159	13.7	< 5	< 5	15.7	186	< 5	92.8	81.1	inhibition at 10 µM [21]: 22.7%; inhibition at 10 µM [22]: 36.5%
COc1ccc(-c2nc3cc(Cl)c(Cl)cc3n2CC(=O)NN=Cc2ccc(O)c(OC)c2)cc1 [Compound 10l, 2-(5,6-Dichloro-2-(4-methoxyphenyl)-1H-benzo[d]imidazol-1-yl)-N'-(4-hydroxy-3-methoxybenzylidene)acetohydrazide]	30.7	32.4	55.3	46.9	51.9	31.6	12.4	32.7	25.4	33	42.2	99	70.8	15	< 5	48.3	32.2	6.44	49.1	51.3	inhibition at 10 µM [21]: 36.3%; inhibition at 10 µM [22]: 33.6%
